{"source": "patent US7655414B2", "about": "“Determination of responders to chemotherapy” (Hoffman La-Roche Inc., priority 2005, dated 2010)", "key": {"[1]": {"tested_on": "non-small-cell lung cancer (NSCLC)", "details": "single-agent erlotinib, second- or third-line therapy; placebo 4.7 months; statistically significant improvement; cited from earlier work"}, "NSCLC": {"tested_on": "NSCLC", "details": "erlotinib plus carboplatin and paclitaxel; cited from earlier work"}, "[2]": {"tested_on": "non-small-cell lung cancer (NSCLC)", "assay": "Clinical study BO16411: Tarceva plus gemcitabine/cisplatin versus placebo plus gemcitabine/cisplatin, with pMAPK/pAKT IHC biomarker subset", "assay_type": "in vivo, human", "procedure": "Biomarker analyses were performed on a sample subset of 141 patients, for which formalin-fixed paraffin embedded (FFPE) tissue blocks from initial diagnosis had been received.\nOne pathologist evaluated all immunostainings. The nuclear staining intensity (pAKT, pMAPK) was estimated by visual inspection in a four step scale (0, 1, 2, 3). In addition to nuclear staining intensity, the percentage of positive cells, and the reason for analysis failure (i.e. lack of tumor cells in the tissue spot or lack of the tissue spot on the TMA slide) was recorded. Exploratory Statistical Analysis:\nThe basic statistics and interdependencies of the different markers were descriptively investigated. Methodological analyses comparing different measurement approaches, e.g. for IHC, were performed with regard to reliability and validity.\nThe p-values emerging from these analyses are not to be interpreted in a confirmative sense; they are to be seen as a special descriptive tool in order to guide the exploration towards an efficient candidate prediction rule. Markers were evaluated on a univariate level regarding their potential for prediction (e.g. search for cut-offs) of the clinical endpoints. Further multivariate techniques (e.g. Linear Discriminant Analysis, Multiple Logistic Regression, Principal Component Analysis with Rotation, Cluster Analysis, CART methodology) were employed in order to study combinations of markers. Biomarker and response correlations with clinical covariates were investigated. Candidate groupings derived from biomarkers were checked with time to event variables (Kaplan-Meier curves, Cox proportional hazard model, logrank test).\nThe patient subset with samples for biomarker analysis was compared to the overall study population regarding baseline patient characteristics and clinical outcome parameters.\nFor determining correlation between pMAPK expression and clincal outcome, cut-off values were established by descriptive statistical analysis: Franklin H-score was determined by combining staining intensity and percentage of stained tumor cells (pMAPK_hsco=(pMAPK_Nuclear_Staining+1)*pMAPK_Nuclear_Pos_Cells; range: 0-400). “Positive” pMAPK staining was defined by H-scores of =/>100, else the staining was “negative”.\n“Positive” pAKT staining was defined by H-scores of =/>300, else the staining was “negative”."}, "[3]": {"tested_on": "first-line NSCLC patients", "details": "erlotinib 150 mg/day plus gemcitabine and cisplatin compared with gemcitabine and cisplatin alone; cited from earlier work"}}, "data": [{"smiles": "C#Cc1cccc(Nc2ncnc3cc(OCCOC)c(OCCOC)cc23)c1", "note": "[Tarceva®, N-(3-ethynylphenyl)-6,7-bis(2-methoxyethoxy) quinazolin-4-amine]", "values": [{"measurement": "Survival", "setting": "[1]", "value": 6.7, "unit": "months"}, {"measurement": "Outcome compared with TALENT (no benefit of adding erlotinib)", "setting": "NSCLC", "value": "Identical results"}, {"measurement": "HR, benefit from chemotherapy/Tarceva combo", "setting": "[2]; \"Positive pMAPK\" patients (H-score =/>100), p: 0.0516", "value": 0.500}, {"measurement": "Hazard Ratio, time to progression/death", "setting": "[2]; COX model without covariates, pAKT1 data set, trtgr only", "value": 1.269}, {"measurement": "Hazard Ratio, time to progression/death", "setting": "[2]; COX model without covariates, pMAPK data set, trtgr only", "value": 1.320}, {"measurement": "Hazard Ratio, time to progression/death", "setting": "[2]; COX model, trtgr in patients with pAKT1 H-Score ≧ 300", "value": 1.262}, {"measurement": "Hazard Ratio, time to progression/death", "setting": "[2]; COX model, trtgr in patients with pMAPK H-Score < 100", "value": 1.634}, {"measurement": "Hazard Ratio, time to progression/death", "setting": "[2]; COX model, trtgr in patients with pMAPK H-Score ≧ 100", "value": 0.773}, {"measurement": "Responders (%)", "setting": "[2]; Main clinical population, Tarceva + gemcitabine/cisplatin arm (N = 396)", "value": 42.4, "unit": "%"}, {"measurement": "Responders (%)", "setting": "[2]; Patient subset with IHC/FISH biomarker data, Tarceva + gemcitabine/cisplatin arm (N = 46)", "value": 43.5, "unit": "%"}, {"measurement": "Benefit on primary (survival duration) and secondary endpoints", "setting": "[3]", "value": "no demonstrable benefit"}]}]}
